The record followed here is US11685741B2, “Fluorescent probes” (University of Massachusetts, priority 2017, dated 2023).

The nature of the assay: Metal ion sensing: UV-vis and fluorescence response to Fe2+ and other metal ions. The procedure:
Selectivity and spectroscopic properties of the Rh6GD sensor were investigated to evaluate the performance of the fluorescence sensor in solution. The solution of metal ions were prepared from chloride salts of Ni^2+, Fe^3+, Cu^2+, Mn^2+, Hg^2+, Na^+, Ca^2+, Zn^2+, Ag^+, and nitrate salts of Mg^2+, K^+, Co^2+ (1 mM) in deionized water, except for Cu^2+ and Co^2+, which were dissolved in acetonitrile anhydrous. Solution of Cu^+ was freshly prepared by dissolving tetrakis(acetonitrile)copper(I) (Sigma-Aldrich) into double-distilled water. […]
(§1) The color change for Fe^2+ is readily detected visually. […]
The changes in fluorescence spectra of Rh6GD with the addition of different metal ions in H2O/THF (pH 7.32, v/v 4:1) are shown in FIG. 23. When Fe^2+ was added into the solution of Rh6GD, a large fluorescence enhancement at 549 nm was observed, induced by the complexation of Fe^2+.
Moreover, upon the addition of 1 equiv of Fe^2+ into solutions containing one of the other metal ions tested, the fluorescence was activated and the intensity increased to a level similar to that observed in the presence of Fe^2+ only (the black bars in FIG. 24).
Metal ion selectivity and spectroscopic properties of the sensor were investigated to evaluate the performance of the fluorescence sensor Rh101D. […]
as §1

For `CCNc1cc2c(cc1C)C1(c3cc(C)c(NCC)cc3O2)c2ccccc2C(=O)N1/N=C/C=C/c1ccc(N(C)C)cc1` [Rh6GD, 2-(((1E,2E)-3-(4-(dimethylamino)phenyl)allylidene)amino)-3′,6′-bis(ethylamino)-2′,7′-dimethylspiro[isoindoline-1,9′-xanthen]-3-one], the “fluorescence enhancement response to Fe^2+” value is on record as 3 fold. The emission intensity enhancement result (1.0 equiv of Fe^2+, H2O/THF pH 7.32, 549 nm (Rh6GD), 743 nm (NIRh-Fret)) is listed as “around 3 times”.
